Data published in the NIST ThermoML archive (doi:10.1021/acs.jced.9b00442).
± gives the expanded uncertainty stated by the source.

Details: 352.15 K; 100 kPa; Liquid; Vibrating tube method

Q: With `CC[N+](C)(C)CCCO.O=S(=O)([N-]S(=O)(=O)C(F)(F)F)C(F)(F)F` as the compound, how does the mass density read?
A: 1416.7 ± 1.1 kg/m3

Q: Which mass density does the source give for `CCCC[N+](C)(C)CC.O=S(=O)([N-]S(=O)(=O)C(F)(F)F)C(F)(F)F` here?
A: 1325 ± 1.1 kg/m3

Same assay, conditions: 353.15 K; 100 kPa; Liquid; Concentric cylinders viscometry

Q: Which viscosity does the source give for `CC[N+](C)(C)CCOC.O=S(=O)([N-]S(=O)(=O)C(F)(F)F)C(F)(F)F` here?
A: 11 ± 0.4 mPa·s

Q: With `CC[N+](C)(C)CCCO.O=S(=O)([N-]S(=O)(=O)C(F)(F)F)C(F)(F)F` as the compound, how does the viscosity read?
A: 18.7 ± 0.8 mPa·s

Q: For `CCCC[N+](C)(C)CC.O=S(=O)([N-]S(=O)(=O)C(F)(F)F)C(F)(F)F`, which viscosity is on record?
A: 14.2 ± 0.6 mPa·s

Same assay, conditions: 353.15 K; 100 kPa; Liquid; Vibrating tube method

Q: Which mass density does the source give for `CC[N+](C)(C)CCOC.O=S(=O)([N-]S(=O)(=O)C(F)(F)F)C(F)(F)F` here?
A: 1380.4 ± 1.1 kg/m3

Q: Which mass density does the source give for `CC[N+](C)(C)CCCO.O=S(=O)([N-]S(=O)(=O)C(F)(F)F)C(F)(F)F` here?
A: 1415.9 ± 1.1 kg/m3

Q: For `CCCC[N+](C)(C)CC.O=S(=O)([N-]S(=O)(=O)C(F)(F)F)C(F)(F)F`, which mass density is on record?
A: 1324.2 ± 1.1 kg/m3

Same assay, conditions: 354.15 K; 100 kPa; Liquid; Vibrating tube method

Q: For `CC[N+](C)(C)CCOC.O=S(=O)([N-]S(=O)(=O)C(F)(F)F)C(F)(F)F`, which mass density is on record?
A: 1379.5 ± 1.1 kg/m3

Q: Which mass density does the source give for `CC[N+](C)(C)CCCO.O=S(=O)([N-]S(=O)(=O)C(F)(F)F)C(F)(F)F` here?
A: 1415 ± 1.1 kg/m3

Q: For `CCCC[N+](C)(C)CC.O=S(=O)([N-]S(=O)(=O)C(F)(F)F)C(F)(F)F`, which mass density is on record?
A: 1323.3 ± 1.1 kg/m3

Same assay, conditions: 355.15 K; 100 kPa; Liquid; Vibrating tube method

Q: Which mass density does the source give for `CC[N+](C)(C)CCOC.O=S(=O)([N-]S(=O)(=O)C(F)(F)F)C(F)(F)F` here?
A: 1378.6 ± 1.1 kg/m3

Q: For `CC[N+](C)(C)CCCO.O=S(=O)([N-]S(=O)(=O)C(F)(F)F)C(F)(F)F`, which mass density is on record?
A: 1414.2 ± 1.1 kg/m3

Q: With `CCCC[N+](C)(C)CC.O=S(=O)([N-]S(=O)(=O)C(F)(F)F)C(F)(F)F` as the compound, how does the mass density read?
A: 1322.5 ± 1.1 kg/m3

Same assay, conditions: 356.15 K; 100 kPa; Liquid; Vibrating tube method

Q: With `CC[N+](C)(C)CCOC.O=S(=O)([N-]S(=O)(=O)C(F)(F)F)C(F)(F)F` as the compound, how does the mass density read?
A: 1377.7 ± 1.1 kg/m3

Q: With `CC[N+](C)(C)CCCO.O=S(=O)([N-]S(=O)(=O)C(F)(F)F)C(F)(F)F` as the compound, how does the mass density read?
A: 1413.3 ± 1.1 kg/m3

Q: With `CCCC[N+](C)(C)CC.O=S(=O)([N-]S(=O)(=O)C(F)(F)F)C(F)(F)F` as the compound, how does the mass density read?
A: 1321.6 ± 1.1 kg/m3

Same assay, conditions: 357.15 K; 100 kPa; Liquid; Vibrating tube method

Q: For `CC[N+](C)(C)CCOC.O=S(=O)([N-]S(=O)(=O)C(F)(F)F)C(F)(F)F`, which mass density is on record?
A: 1376.9 ± 1.1 kg/m3

Q: For `CC[N+](C)(C)CCCO.O=S(=O)([N-]S(=O)(=O)C(F)(F)F)C(F)(F)F`, which mass density is on record?
A: 1412.5 ± 1.1 kg/m3

Q: Which mass density does the source give for `CCCC[N+](C)(C)CC.O=S(=O)([N-]S(=O)(=O)C(F)(F)F)C(F)(F)F` here?
A: 1320.8 ± 1.1 kg/m3

Same assay, conditions: 358.15 K; 100 kPa; Liquid; Concentric cylinders viscometry

Q: Which viscosity does the source give for `CC[N+](C)(C)CCOC.O=S(=O)([N-]S(=O)(=O)C(F)(F)F)C(F)(F)F` here?
A: 9.7 ± 0.4 mPa·s

Q: With `CC[N+](C)(C)CCCO.O=S(=O)([N-]S(=O)(=O)C(F)(F)F)C(F)(F)F` as the compound, how does the viscosity read?
A: 16.2 ± 0.7 mPa·s

Q: With `CCCC[N+](C)(C)CC.O=S(=O)([N-]S(=O)(=O)C(F)(F)F)C(F)(F)F` as the compound, how does the viscosity read?
A: 12.4 ± 0.5 mPa·s

Same assay, conditions: 358.15 K; 100 kPa; Liquid; Vibrating tube method

Q: For `CC[N+](C)(C)CCOC.O=S(=O)([N-]S(=O)(=O)C(F)(F)F)C(F)(F)F`, which mass density is on record?
A: 1376 ± 1.1 kg/m3

Q: With `CC[N+](C)(C)CCCO.O=S(=O)([N-]S(=O)(=O)C(F)(F)F)C(F)(F)F` as the compound, how does the mass density read?
A: 1411.7 ± 1.1 kg/m3

Q: For `CCCC[N+](C)(C)CC.O=S(=O)([N-]S(=O)(=O)C(F)(F)F)C(F)(F)F`, which mass density is on record?
A: 1319.9 ± 1.1 kg/m3

Same assay, conditions: 359.15 K; 100 kPa; Liquid; Vibrating tube method

Q: With `CC[N+](C)(C)CCOC.O=S(=O)([N-]S(=O)(=O)C(F)(F)F)C(F)(F)F` as the compound, how does the mass density read?
A: 1375.1 ± 1.1 kg/m3

Q: Which mass density does the source give for `CC[N+](C)(C)CCCO.O=S(=O)([N-]S(=O)(=O)C(F)(F)F)C(F)(F)F` here?
A: 1410.8 ± 1.1 kg/m3

Q: For `CCCC[N+](C)(C)CC.O=S(=O)([N-]S(=O)(=O)C(F)(F)F)C(F)(F)F`, which mass density is on record?
A: 1319.1 ± 1.1 kg/m3

Same assay, conditions: 360.15 K; 100 kPa; Liquid; Vibrating tube method

Q: For `CC[N+](C)(C)CCOC.O=S(=O)([N-]S(=O)(=O)C(F)(F)F)C(F)(F)F`, which mass density is on record?
A: 1374.2 ± 1.1 kg/m3

Q: For `CC[N+](C)(C)CCCO.O=S(=O)([N-]S(=O)(=O)C(F)(F)F)C(F)(F)F`, which mass density is on record?
A: 1410 ± 1.1 kg/m3

Q: Which mass density does the source give for `CCCC[N+](C)(C)CC.O=S(=O)([N-]S(=O)(=O)C(F)(F)F)C(F)(F)F` here?
A: 1318.3 ± 1.1 kg/m3

Same assay, conditions: 361.15 K; 100 kPa; Liquid; Vibrating tube method

Q: Which mass density does the source give for `CC[N+](C)(C)CCOC.O=S(=O)([N-]S(=O)(=O)C(F)(F)F)C(F)(F)F` here?
A: 1373.3 ± 1.1 kg/m3

Q: For `CC[N+](C)(C)CCCO.O=S(=O)([N-]S(=O)(=O)C(F)(F)F)C(F)(F)F`, which mass density is on record?
A: 1409.1 ± 1.1 kg/m3

Q: For `CCCC[N+](C)(C)CC.O=S(=O)([N-]S(=O)(=O)C(F)(F)F)C(F)(F)F`, which mass density is on record?
A: 1317.4 ± 1.1 kg/m3

Same assay, conditions: 362.16 K; 100 kPa; Liquid; Vibrating tube method

Q: For `CC[N+](C)(C)CCOC.O=S(=O)([N-]S(=O)(=O)C(F)(F)F)C(F)(F)F`, which mass density is on record?
A: 1372.4 ± 1.1 kg/m3

Q: Which mass density does the source give for `CC[N+](C)(C)CCCO.O=S(=O)([N-]S(=O)(=O)C(F)(F)F)C(F)(F)F` here?
A: 1408.3 ± 1.1 kg/m3

Q: Which mass density does the source give for `CCCC[N+](C)(C)CC.O=S(=O)([N-]S(=O)(=O)C(F)(F)F)C(F)(F)F` here?
A: 1316.6 ± 1.1 kg/m3

Same assay, conditions: 363.15 K; 100 kPa; Liquid; Concentric cylinders viscometry

Q: For `CC[N+](C)(C)CCOC.O=S(=O)([N-]S(=O)(=O)C(F)(F)F)C(F)(F)F`, which viscosity is on record?
A: 8.8 ± 0.4 mPa·s

Q: Which viscosity does the source give for `CC[N+](C)(C)CCCO.O=S(=O)([N-]S(=O)(=O)C(F)(F)F)C(F)(F)F` here?
A: 14.3 ± 0.6 mPa·s

Q: Which viscosity does the source give for `CCCC[N+](C)(C)CC.O=S(=O)([N-]S(=O)(=O)C(F)(F)F)C(F)(F)F` here?
A: 11 ± 0.4 mPa·s

Same assay, conditions: 363.15 K; 100 kPa; Liquid; Vibrating tube method

Q: For `CC[N+](C)(C)CCOC.O=S(=O)([N-]S(=O)(=O)C(F)(F)F)C(F)(F)F`, which mass density is on record?
A: 1371.5 ± 1.1 kg/m3

Q: With `CC[N+](C)(C)CCCO.O=S(=O)([N-]S(=O)(=O)C(F)(F)F)C(F)(F)F` as the compound, how does the mass density read?
A: 1407.4 ± 1.1 kg/m3

Q: With `CCCC[N+](C)(C)CC.O=S(=O)([N-]S(=O)(=O)C(F)(F)F)C(F)(F)F` as the compound, how does the mass density read?
A: 1315.7 ± 1.1 kg/m3
